The structures appear in SMILES notation. The source made the active and inactive calls. The calls are words filed in the database; no cut-off is given here. Some results are limits rather than exact numbers.

From ChEMBL document CHEMBL6109113, “Design, synthesis, and biological evaluation of novel PROTACs compounds with good ERα degradation ability” (Bioorg Med Chem, 2025) come the findings set out here.

Data set [1] concerns the target T1, Protein cereblon/Estrogen receptor (Homo sapiens, UniProt P03372+Q96SW2). The experiment in a line: Protac activity at CRBN/ER in human MCF7 cells assessed as induction of ER degradation at 1 uM measured after 24 hrs by Western blot analysis. In kind it is cell-based. In general terms: In western blotting, separated proteins are transferred to a membrane and probed.
Target sequence in this assay (P03372 whole entry, looked up): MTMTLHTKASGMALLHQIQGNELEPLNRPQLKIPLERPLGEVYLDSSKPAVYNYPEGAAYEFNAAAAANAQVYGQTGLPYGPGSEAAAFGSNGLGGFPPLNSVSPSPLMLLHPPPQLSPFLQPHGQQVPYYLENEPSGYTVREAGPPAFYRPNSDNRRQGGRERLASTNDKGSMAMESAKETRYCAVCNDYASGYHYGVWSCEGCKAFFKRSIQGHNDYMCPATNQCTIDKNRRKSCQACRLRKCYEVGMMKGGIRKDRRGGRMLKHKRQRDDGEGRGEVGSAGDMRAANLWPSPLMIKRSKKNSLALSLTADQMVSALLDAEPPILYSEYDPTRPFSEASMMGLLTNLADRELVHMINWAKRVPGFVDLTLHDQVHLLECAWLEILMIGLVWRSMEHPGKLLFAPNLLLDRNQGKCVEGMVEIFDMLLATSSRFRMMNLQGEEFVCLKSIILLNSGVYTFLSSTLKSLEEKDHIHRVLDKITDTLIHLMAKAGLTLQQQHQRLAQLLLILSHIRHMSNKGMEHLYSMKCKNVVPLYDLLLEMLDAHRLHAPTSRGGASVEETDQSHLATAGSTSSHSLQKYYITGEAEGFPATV
Target sequence in this assay (Q96SW2 whole entry, looked up): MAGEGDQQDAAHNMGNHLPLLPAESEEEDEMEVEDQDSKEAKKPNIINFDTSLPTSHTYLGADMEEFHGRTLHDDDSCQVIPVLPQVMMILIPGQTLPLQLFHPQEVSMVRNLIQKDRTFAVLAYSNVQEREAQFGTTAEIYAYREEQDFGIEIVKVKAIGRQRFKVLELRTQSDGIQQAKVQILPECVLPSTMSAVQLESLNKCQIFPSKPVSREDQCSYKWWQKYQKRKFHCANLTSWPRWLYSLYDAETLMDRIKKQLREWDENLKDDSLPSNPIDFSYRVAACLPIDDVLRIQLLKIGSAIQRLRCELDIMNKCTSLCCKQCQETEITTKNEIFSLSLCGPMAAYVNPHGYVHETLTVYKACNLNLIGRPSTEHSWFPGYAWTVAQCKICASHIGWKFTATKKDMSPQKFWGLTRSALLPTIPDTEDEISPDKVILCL

Data set [2] has as its system MCF7. Put plainly: Protac activity at VHL/ER in human MCF7 cells assessed as induction of ER degradation at 1 uM measured after 24 hrs by Western blot analysis. In kind it is cell-based.
Data set [3] in a line: Toxicity in CD-1 mouse assessed as adverse effect at 2 mg/kg, ip. Format: organism-based. The note with it: in vivo.
Data set [4] concerns the target T1, Protein cereblon/Estrogen receptor. Put plainly: Protac activity at CRBN/ER in human MCF7 cells assessed as induction of ER degradation at 10 uM measured after 24 hrs by Western blot analysis. In kind it is cell-based.
Target sequence in this assay (P03372 whole entry, looked up): as the sequence (P03372 whole entry, looked up) above
Target sequence in this assay (Q96SW2 whole entry, looked up): as the sequence (Q96SW2 whole entry, looked up) above
Data set [5] shares this target. Put plainly: Protac activity at CRBN/ER in human MCF7 cells assessed as induction of ER degradation measured after 24 hrs by Western blot analysis. In kind it is cell-based.
A short description of data set [6]: Tmax in CD-1 mouse at 2 mg/kg, ip by LC-MS/MS analysis. Format: ADME, organism-based. Particulars: in vivo.
Data set [7] can be described thus: Observed apparent […] clearance in CD-1 mouse at 2 mg/kg, ip by LC-MS/MS analysis. In kind it is ADME, organism-based. The note with it: in vivo.
Data set [8] can be described thus: Cmax in CD-1 mouse at 2 mg/kg, ip by LC-MS/MS analysis. In kind it is ADME, organism-based. The note with it: in vivo.
Data set [9] relates to MCF7. The experiment in a line: Antiproliferative activity against human MCF7 cells assessed as reduction in cell viability measured after 7 days by celltiter-glo luminescence assay. In kind it is functional, cell-based. Particulars: for IC50: MCF7, 168 h; for Activity: time 7.0 day. Background: ATP-based viability assays read luminescence as a measure of living cells.
A short description of data set [10]: Half life in CD-1 mouse at 2 mg/kg, ip by LC-MS/MS analysis. In kind it is ADME, organism-based. The note with it: in vivo.

For the compound `COC(=O)c1ccc2c(c1)CCCC(c1ccc(Cl)cc1Cl)=C2c1ccc(N2CCC(CNCCOCCCOCCCOCCNC(=O)COc3ccc4c(c3)C(=O)N(C3CCC(=O)NC3=O)C4=O)CC2)cc1` (centres undefined), the result in [1] was Active.

Turning to `COC(=O)c1ccc2c(c1)CCCC(c1ccc(Cl)cc1Cl)=C2c1ccc(N2CCC(CN[C@H](C(=O)N3C[C@H](O)C[C@H]3C(=O)N[C@@H](C)c3ccc(-c4scnc4C)cc3)C(C)(C)C)CC2)cc1`, in the data set with MCF7 [2], the Activity result was “Not active; Degradation Ability Was Poorer When Compared With Compounds Whose E3 Ligase Ligand Was Crbn”.

A word on the DC50: it is the concentration giving 50% degradation. In general, Tmax refers to the time at which the peak concentration occurs. In general, CL/F refers to the apparent clearance, not corrected for the fraction that reaches the circulation. The Cmax is the maximum level reached in the sampled fluid or tissue. The term IC50 denotes the concentration needed to halve the response being measured. By half-life is commonly meant the time in which the quantity being followed falls by half. Read a low half-life as rapid decline. On to `COC(=O)c1ccc2c(c1)CCCC(c1ccc(Cl)cc1Cl)=C2c1ccc(N2CCN(CC3CCN(CC4CCN(C(=O)CNc5ccc6c(c5)C(=O)N(C5CCC(=O)NC5=O)C6)CC4)CC3)CC2)cc1` (centres undefined), for which the Activity result in data set [3] was “Non-toxic”. The result in [4] was inactive. In data set [5], the Activity entry was “Dose-dependent-effect” and the DC50 was determined as 95 nM. Also, in data set [6], the time to peak (Tmax) is 0.83 h. For the same compound, the CL/F in data set [7] is 25.8 mL/min/kg. For the same compound, the outcome in [1] was Active. The compound further displayed a Cmax in data set [8] of 677 ng/mL. In the data set with MCF7 [9], the IC50 was 30.2 nM and the Activity entry is “Dose-dependent-effect”. The half-life in [10] is 11.2 h.

Regarding `Cc1ncsc1-c1ccc([C@H](C)NC(=O)[C@@H]2C[C@@H](O)CN2C(=O)[C@@H](NCC2CCN(c3ccc(C4=C(c5ccc(Cl)cc5Cl)CCCc5cc(C(=O)O)ccc54)cc3)CC2)C(C)(C)C)cc1`, the Activity result in the data set on MCF7 [2] is “Not active; Degradation Ability Was Poorer When Compared With Compounds Whose E3 Ligase Ligand Was Crbn”.

For `COC(=O)c1ccc2c(c1)CCCC(c1ccc(Cl)cc1Cl)=C2c1ccc(OC2CCN(CCCNC(=O)CN3CCN(C(=O)CNc4cccc5c4CN(C4CCC(=O)NC4=O)C5=O)CC3)C2)cc1` (centres undefined), in the data set on MCF7 [9], the IC50 was found to be 80.2 nM and the Activity entry is “Dose-dependent-effect”.

As for `COC(=O)c1ccc2c(c1)CCCC(c1ccc(Cl)cc1Cl)=C2c1ccc(OC2CCN(CCCNC(=O)C3CCN(C4CCN(C(=O)CNc5cccc6c5CN(C5CCC(=O)NC5=O)C6=O)CC4)CC3)C2)cc1` (centres undefined), in the data set on MCF7 [9], the IC50 came to 772 nM and the Activity result was “Dose-dependent-effect”.

On to `COC(=O)c1ccc2c(c1)CCCC(c1ccc(Cl)cc1Cl)=C2c1ccc(OC2CCN(CCCN[C@H](C(=O)N3C[C@H](O)C[C@H]3C(=O)N[C@@H](C)c3ccc(-c4scnc4C)cc3)C(C)(C)C)C2)cc1` (some centres undefined), for which the Activity entry in the data set on MCF7 [2] is “Not active; Degradation Ability Was Poorer When Compared With Compounds Whose E3 Ligase Ligand Was Crbn”.

For `C[C@]12CC[C@@H]3c4ccc(O)cc4C[C@@H](CCCCCCCCC[S+]([O-])CCCC(F)(F)C(F)(F)F)[C@H]3[C@@H]1CC[C@@H]2O` (some centres undefined) [FULVESTRANT], the time of peak concentration (Tmax) in data set [6] turned out to be 0.83 h. Further, the apparent clearance (CL/F) in data set [7] is 45.8 mL/min/kg. The compound further came in with a maximum concentration (Cmax) in data set [8] of 237 ng/mL. Further, in the data set on MCF7 [9], the IC50 is < 0.5 nM. For the same compound, the half-life in [10] is 1.47 h.
